# Read-outs that look alike come from different tables or passages of the source.
# What was measured:
# [1] = molecular target: T1, tyrosine-specific protein-kinase (epidermal growth factor receptor-kinase, A-431 membrane fraction) (Homo sapiens, UniProt P00533); assay: TPK-I activity (inhibition of tyrosine-specific protein-kinase / epidermal growth factor receptor-kinase, 32P-ATP, A-431 membrane fraction); assay type: biochemical
# T1 construct: a membrane fraction of human epidermal carcinoma cells A-431 was used; endogenous in cells; host or cells: A-431 human epidermal carcinoma cells, membrane fraction
# Protocol: 50 μl of the reaction mixture was sampled and absorbed to Wattman No. 3MM filter membrane and dipped in an ice-cooled TCA. After kept for 30 minutes, the filter membrane was taken out and washed out TCA, ethanol and ether, and the count of ^32 P as stuck to the said filter membrane was measured (a). The same reaction and treatment were carried out, where the test substance only was excluded, and the count of ^32 P on the filter was measured in the same manner (b). Further, the values as measured in the cases where the membrane fraction was excluded were (a') and (b'), respectively. Thus, the percentage of the inhibition of the epiderman growth factor receptor-kinase was calculated from the formula of […].
# The TPK-I activity of typical compounds of the present invention was extremely high at a low concentration, as shown in the following Table.
# [2] = system: Staphylococcus aureus Smith; assay: Antimicrobial activity, MIC by agar dilution method (Staphylococcus aureus Smith); assay type: cell-based; settings: read-out: MIC (Staphylococcus aureus Smith)
# Protocol: (§1) The minimum growth inhibition concentration (MIC) of the compounds of the present invention against various bacteria was measured by means of an agar dilution method using Muller-Hinton medium, which is shown in the following Table.
# Psudomonas aeruginosa A3 = assay: Antimicrobial activity, MIC by agar dilution method (Psudomonas aeruginosa A3); assay type: cell-based; settings: read-out: MIC (Psudomonas aeruginosa A3)
# Protocol: as §1
# L 1210 leukemia cells = assay: Growth inhibition activity against cultured carcinoma cells (L 1210 leukemia cells); assay type: cell-based; settings: Mus musculus, L1210, 72 h, read-out: L 1210 IC50 (50%-inhibition concentration against growth)
# Protocol: (B) Growth inhibition activity against cultured carcinoma cells:
# After the incubation, the number of the cells was counted and the activity was evaluated.
# [3] = molecular target: T1, tyrosine-specific protein-kinase (epidermal growth factor receptor-kinase, A-431 membrane fraction); settings: MH435-A, earlier application; cited from earlier work
# various bacteria = settings: MH435-A, earlier application; cited from earlier work
# cultured carcinoma cells = settings: MH435-A, earlier application; cited from earlier work
# [4] = A-431 membrane fraction, EGF, histone, pH 7.4, 0° C., 30 minutes, read-out: TPK-I IC50 (converted)
# [5] = agar dilution method, Muller-Hinton medium
# [6] = L 1210 leukemia cells, 3 days, 37° C., 5% CO2
# T1 sequence (P00533 25-1210): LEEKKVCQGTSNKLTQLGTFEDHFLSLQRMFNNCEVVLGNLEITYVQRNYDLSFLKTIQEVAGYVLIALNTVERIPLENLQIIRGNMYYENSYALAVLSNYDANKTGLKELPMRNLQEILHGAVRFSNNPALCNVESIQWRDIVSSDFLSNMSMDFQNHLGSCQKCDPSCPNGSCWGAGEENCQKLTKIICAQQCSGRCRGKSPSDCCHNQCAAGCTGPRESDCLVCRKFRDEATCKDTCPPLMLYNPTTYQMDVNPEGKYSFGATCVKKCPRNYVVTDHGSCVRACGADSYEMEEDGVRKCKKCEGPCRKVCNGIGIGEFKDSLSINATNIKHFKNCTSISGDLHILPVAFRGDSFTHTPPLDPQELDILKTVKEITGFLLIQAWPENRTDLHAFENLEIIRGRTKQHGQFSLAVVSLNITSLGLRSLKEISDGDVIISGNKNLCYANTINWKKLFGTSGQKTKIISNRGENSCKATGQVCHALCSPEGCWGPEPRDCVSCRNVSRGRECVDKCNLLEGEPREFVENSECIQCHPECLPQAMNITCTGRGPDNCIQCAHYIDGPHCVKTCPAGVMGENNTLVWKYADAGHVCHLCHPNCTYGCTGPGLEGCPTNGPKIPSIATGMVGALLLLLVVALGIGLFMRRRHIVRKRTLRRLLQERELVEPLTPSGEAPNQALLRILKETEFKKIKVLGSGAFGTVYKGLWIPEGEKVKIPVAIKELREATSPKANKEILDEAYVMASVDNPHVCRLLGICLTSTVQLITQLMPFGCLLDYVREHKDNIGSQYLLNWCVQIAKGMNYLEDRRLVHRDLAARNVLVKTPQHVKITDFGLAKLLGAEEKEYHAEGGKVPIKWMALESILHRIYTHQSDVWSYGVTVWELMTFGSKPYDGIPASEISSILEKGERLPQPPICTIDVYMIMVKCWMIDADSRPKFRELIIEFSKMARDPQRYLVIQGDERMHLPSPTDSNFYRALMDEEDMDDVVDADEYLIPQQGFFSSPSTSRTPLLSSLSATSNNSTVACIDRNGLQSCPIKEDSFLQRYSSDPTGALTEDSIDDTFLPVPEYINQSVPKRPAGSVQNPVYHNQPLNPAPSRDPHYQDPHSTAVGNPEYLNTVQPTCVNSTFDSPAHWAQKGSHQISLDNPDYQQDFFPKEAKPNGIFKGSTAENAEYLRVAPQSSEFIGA
SMILES,"IC50 [1, 4] [µM]","MIC [2, 5] [µg/mL]",MIC (Psudomonas aeruginosa A3; [5]) [µg/mL],IC50 (L 1210 leukemia cells; [6]) [µg/mL],also measured
"[C-]#[N+]C=Cc1cc(Br)ccc1O [Compound 2, 2-(5-bromo-2-hydroxyphenyl)vinylisocyanide]",> 28.6,6.25,12.5,0.25,–
"[C-]#[N+]C=Cc1cc(OC)ccc1OC [Compound 3, 2-(2,5-dimethoxyphenyl)vinylisocyanide]",–,–,–,–,IC50 [1]: > 52.9 µM; MIC [2]: 3.12 µg/mL; MIC (Psudomonas aeruginosa A3): 25 µg/mL; IC50 (L 1210 leukemia cells): 0.65 µg/mL
"O=CNC=Cc1cc(Br)ccc1O [Compound 9, (2-formamidovinyl)-5-bromo-2-hydroxybenzene]",> 26.4,100,> 50,12,–
"COc1ccc(OC)c(C=CNC=O)c1 [Compound 10, (2-formamidovinyl)-2,5-dimethoxybenzene]",> 145,> 100,> 100,62,–
"COc1ccc(O)c(C=CNC=O)c1 [Compound 11, (2-formamidovinyl)-2-hydroxy-5methoxybenzene]",> 33.1,> 100,> 50,23,–
"O=CNC=Cc1ccccc1O [Compound 12, (2-formamidovinyl)-2-hydroxybenzene]",–,> 100,> 50,30,–
"O=CNC=Cc1cccc(O)c1O [Compound 13, (2-formamidovinyl)-2,3-dihydroxybenzene]",1.67,100,100,2.2,–
"O=CNC=Cc1ccc(O)c(O)c1 [Compound 14, (2-formamidovinyl)-3,4-dihydroxybenzene]",7.26,> 50,25,22,–
"CC(=O)NC=Cc1cc(O)ccc1O [Compound 18, (2-acetamidovinyl)-2,5-dihydroxybenzene]",15.5,–,–,3,–
O=CNC=Cc1cc(O)ccc1O [MH435-A],–,–,–,–,inhibition of tyrosine-specific protein-kinase activity (in words) [3]: can inhibit the said protein-kinase activity in a low concentration; antimicrobial activity (in words) (various bacteria): has antimicrobial activity; antitumor activity (in words) (cultured carcinoma cells): antitumor activity

# Reference: patent US4925877A, “Physiologically active erbstatin analogue compounds and compositions” (Zaidanhojin Biseibutsu Kagaku Kenkyukai, priority 1986, dated 1990)
